Columns and labels:
[1] = tested on: HCT116 human colorectal carcinoma; test: Cell Proliferation Assay (CellTiter-Glo), HCT116; format: cell-based; conditions: HCT-116, HCT116 cell line, 72 h exposure
Description: Compounds are tested in a cell proliferation assay using the following cell lines:
(§1) HCT116 human colorectal carcinoma (ATCC)
(§2) Both cell lines are maintained in DMEM/F12 (1:1) media (Gibco) supplemented with 10% FCS at 37° C. in a 5% CO2 humidified incubator.
Cells are seeded in 96-well plates at 2,000 cells/well and after 24 hours they are exposed to different concentrations of compounds in 0.83% DMSO. Cells are grown for a further 72 h, and an equal volume of CellTiter-Glo reagent (Promega) is added to each well. This lyses the cells and generates a luminescent signal proportional to the amount of ATP released (and therefore proportional to the number of cells in the well) that can be detected using a multi-well luminometer.
The EC50 is defined as the concentration at which a given compound achieves 50% inhibition of control. IC50 values are calculated using the XLfit software package (version 2.0.5).

phospho-ERK = test: Phospho-ERK Cell-Based Assay (ELISA), HCT116; conditions: Homo sapiens, HCT-116; HCT116 cell line, 2 h or 24 h exposure
Description: Phospho-ERK Cell-Based Assay
Compounds are tested in a cell-based phospho-ERK ELISA using the following cell lines:
as §1, §2
Cells are seeded in 96-well plates at 2,000 cells/well and after 24 h they are exposed to different concentrations of compounds in 0.83% DMSO. Cells are grown for a further 2 h or 24 h, fixed with formaldehyde (2% final) and permeabilised with methanol. Following blocking with TBST-3% BSA, fixed cells are incubated with primary antibody (anti-phospho ERK from rabbit) over-night at 4° C. Cells are incubated with Propidium Iodide (DNA fluorescent dye) and detection of cellular p-ERK is performed using an anti-rabbit secondary antibody conjugated to the fluorescent Alexa Fluor 488 dye (Molecular probes). The fluorescence is analysed using the Acumen Explorer (TTP Labtech), a laser-scanning microplate cytometer, and the Alexa Fluor 488 signal is normalised to the PI signal (proportional to cell number).
The EC50 is defined as the concentration at which a given compound achieves a signal half way between the baseline and the maximum response. EC50 values are calculated using the XLfit software package (version 2.0.5).

`C[C@H](O)CONC(=O)c1ccn2cncc2c1Nc1ccc(Br)cc1F` [Example 12, 8-(4-Bromo-2-fluoro-phenylamino)-imidazo[1,5-a]pyridine-7-carboxylic acid ((S)-2-hydroxy-propoxy)-amide] was tested, and the EC50 [1] was < 100 nM and the EC50 (phospho-ERK) was < 200 nM.

— patent US8293763B2, “8-anilinoimidazopyridines and their use as anti-cancer and/or anti-inflammatory agents” (Genentech, Inc., priority 2007, dated 2012)
